Reference: US20170189496A1, “USE OF PHOSPHORYLATION PATHWAY-RELATED FACTOR IN REGULATING FUNCTION OF REGULATORY T CELL” (Institut Pasteur of Shanghai, Chinese Academy of Sciences, priority 2012, published 2017)

Key:
[1] = tested on: SZ4.03 lymphocyte cell line that highly expresses FOXP3; assay: Inflammatory cytokine induction of PIM1 expression in SZ4.03 cells (immunoblot); type: cell-based; details: IL-6 20 ng/ml or IL-4 30 ng/ml; for PIM1 expression: 0 h, 1 h, 2 h, 4 h; for FOXP3 expression levels: 0-4 h
Description: SZ4.03 cells were treated with IL-6 (20 ng/ml) or IL-4 (30 ng/ml), respectively. After 0 h, 1 h, 2 h, and 4 h, cells were collected and lysed by boiling directly in SDS-Loading Buffer. Samples were then analyzed by immunoblot.
SZ4.03 cells (lymphocyte cell line that highly expresses FOXP3, kept in the present laboratory; also can be routinely obtained by one skilled in the art according to methods described in Reference 7) were cultured in 1640 culture medium containing 10% FBS, 100 units/ml penicillin-streptomycin, 100 units ml non-essential amino acids, and 100 units/ml sodium pyruvate, at 37° C. under 5% CO2.
After protein samples were subjected to SDS-PAGE, transferred to nitrocellulose membrane, sealed in TBST with 5% skim milk for 1 h, primary antibody was added and incubated for 1 h, then HRP-conjugated secondary antibody was added and incubated for 1 h, and results shown by exposure with ECL substrates.
SZ4.03 cells were treated with IL-6 (20 ng/ml) or IL-4 (30 ng/ml), respectively, for 0 h, 1 h, 2 h, and 4 h. Cells were collected and lysed by boiling directly in SDS sample buffer, and then samples were analyzed by immunoblot (primary antibodies are PIM1 antibody and FOXP3 antibody) (results shown in FIG. 2).

[2] = tested on: in vitro expanded natural regulatory T cells (nTreg); assay: PIM1 protein expression in in vitro expanded nTreg under inflammatory cytokine stimulation; type: cell-based
nTreg cells = assay: nTreg expansion, FACS detection of FOXP3 and CTLA4; type: cell-based, human; details: 100 nM; IL-2 500 U/ml, CD3/CD28 dynabeads 3:1; two weeks; vs control group
Description: 500 U/ml of IL-2 was added to 2×10^5 nTreg cells. nTreg cells were expanded using CD3/CD28 T cell dynabeads and cells at 3:1 ratio. After two weeks, part of expanded nTreg cells were collected for FACS detection. Dynabeads were removed from the remaining cells. After 48 h of rest, FOXP3 and CTLA4 cells were collected again by flow cytometry. The working concentrations of Rapamycin and PIM1 inhibitors are both 100 nM.
500 U/ml of IL-2 was added to 2×10^5 nTreg cells. nTreg cells were expanded at a 3:1 ratio of CD3/CD28 T cell dynabeads and cells. After two weeks, part of the expanded nTreg cells were collected for FACS detection. Dynabeads were removed from the remaining cells and rested for 48 h. Cells were collected again for FACS detection of FOXP3 and CTLA4.

[3] = tested on: human CD4+ CD25+ CD127low natural Treg (nTreg); assay: Flow cytometry of expanded nTreg treated with PIM1 inhibitor; type: cell-based; details: 100 nM
Description: After removal of Beads, DMSO or PIM1 inhibitor (100 nM) was added and treated for 24 h, followed by APC-FOXP3 and PE-CD25 antibody staining for flow cytometry analysis.
After human CD4+ CD25+ CD127^low natural Treg (nTreg) were sorted by BD FACS Aria II flow sorter, and expanded through Bead-CD3/CD28 and IL-2 (500 U/ml). DMSO or PIM1 inhibitor (4-[3-(4-chlorophenyl)-2,1-benzisoxazol-5-yl]-2-pyrimidinamine, 100 nM) was added and treated for 24 h. and the cells were stained with APC-FOXP3 and PE-CD25 antibody for flow cytometry analysis (results shown in FIG. 5A). The expanded nTreg were rested for 24 h. DMSO or PIM1 inhibitor (100 nM) was then added and treated for 48 h, followed by staining with APC-FOXP3 and PE-CD25 antibody for flow cytometry analysis (results shown in FIG. 5B).

[4] = tested on: nTreg mixed with CFSE-labeled human PBMC; assay: nTreg immunosuppressive activity: proliferation of CFSE-labeled PBMC; type: cell-based; details: Treg:PBMC 1:2 or 1:4; Bead-CD3/CD28; 5 days; vs DMSO-treated group
Description: The expanded nTreg were mixed with human CFSE-labeled PBMC (2×10^5 cells/well) in U-shaped wells of 96-well plate at corresponding proportion. 5000 T cell dynabeads conjugated with CD3/CD28 antibody were added. Cell proliferation levels were detected after two groups of cells treated with DMSO and PIM1 inhibitors, respectively, were incubated for five days.
Regulatory T cells were obtained from human peripheral blood mononuclear cells (purchased from Shanghai Blood Center) by antibody labeling and magnetic bead sorting. As mentioned above, after labeling effector T cells with 1 μM CFSE (Invitrogen), regulatory T cells and effector T cells were cultured for 80 h. Flow cytometry was used to detect fluorescence intensity changes in effector T cells, their proliferation status was analyzed.
The expanded nTreg were mixed with CFSE-labeled human PBMC (2×10^5 cells/well) at the corresponding ratio (i.e., PBMC only, Treg:PBMC=1:2 or 1:4, or Treg only) in 96-well U-shaped well. 5000 Bead-CD3/CD28 were added to each well. Two groups of cells were treated, respectively, with DMSO and PIM1 inhibitors, cultured for 5 days, followed by detection of cell proliferation levels (results shown in FIG. 6).

[5] = tested on: Jurkat cells stably expressing HA-FOXP3; assay: FOXP3 protein degradation induced by PMA/LPS in Jurkat cells stably expressing HA-FOXP3 (immunoblot); type: cell-based; details: PMA 25 ng/ml + LPS 1 ng/ml, 24 h; kaempferol 50 μM, PIM1 inhibitor 100 nM, PI3K inhibitor 10 μg/ml; DMSO control
Description: HA-FOXP3-Jurkat stable expression cells were treated with PMA (25 ng/ml) and LPS (1 ng/ml). 50 μM kaempferol, 100 nM PIM1 inhibitors (specifically of 4-[3-(4-chlorophenyl)-2,1-benzisoxazol-5-yl]-2-pyrimidinamine), and 10 μg/ml PI3K inhibitor (LY294002) were added, and DMSO as a control. Cells were collected 24 h later. The levels of FOXP3 and GAPDH were detected directly by immunoblot.
Human embryonic kidney cell line HEK293 was co-transfected with FUGW-HA-FOXP3, del 8.9 and VSV-G. Cell culture supernatants were collected 48 h and 72 h after transfection. Viruses were purified by ultracentrifugation and used to infect Jurkat E6.1 to ultimately obtain Jurkat cell lines stably expressing HA-FOXP3.
Protein samples were subjected to SDS-PAGE, and then transferred to nitrocellulose membrane, which was then sealed in TBST containing 5% nonfat dry milk or 3% bovine serum albumin for 1 h. Primary antibody was added and incubated for 1 h and then HRP-conjugated secondary antibody was added and incubated for 1 h, and results shown by exposure with ECL substrates.
Jurkat cells stably expressing HA-FOXP3 were treated with PMA (25 ng/ml) and LPS (1 ng/ml). Each sample was added 50 μM kaempferol, 100 nM PIM1 inhibitor (i.e., 4-[3-(4-chlorophenyl)-2,1-benzisoxazol-5-yl]-2-pyrimidinamine), and 10 μg/ml PI3K inhibitor (LY294002). DMSO serves as a control. Cells were collected after 24 h.

PIM1 [6] = target: T1, PIM1 (Homo sapiens, UniProt P11309); assay: shPIM1 knockdown in SZ4.03 cells, mRNA of FOXP3 target genes by quantitative PCR; type: cell-based; set-up: SZ4.03 cells that highly expresses FOXP3 were infected with viral vectors carrying the negative control shRNA (shCK) and PIM1 shRNA (shPIM1); endogenous in cells; host or cells: SZ4.03 lymphocyte cell line; details: vs control shCK
Description: After 4 h, total RNA was extracted and converted to cDNA. PIM1 mRNA expression levels were then analyzed by quantitative PCR.
(§1) shPIM1 primer sequences were designed as follows:
After annealing, the synthesized shRNA primer sequences were ligated into lentiviral shRNA expression vector pLKO.1 (purchased from Addgene). After mixed at a ratio of pLKO.1:dR8.9:VSVG=5:4:3, HEK 293T cells were transfected with the mixture using calcium phosphate method. Viruses were collected 48 h after transfection. After low-speed centrifugation and filtration, virus suspension was used directly to infect target cells.
SZ4.03 cells that highly expresses FOXP3 were infected with viral vectors carrying the negative control shRNA (shCK) and PIM1 shRNA (shPIM1) packaged using lentiviral packaging system, followed by puromycin (50 ng/ml) selection and DMSO or PMA/inomycin (P/I) for 4 h. Total RNA was extracted and reverse transcribed to cDNA.

PIM1 [7] = target: T1, PIM1; assay: PIM shRNA lentivirus in primary nTreg, mRNA by quantitative PCR; type: cell-based; set-up: SZ4.03 cells that highly expresses FOXP3 were infected with viral vectors carrying the negative control shRNA (shCK) and PIM1 shRNA (shPIM1); endogenous in cells; details: primary nTreg cells; 1 week culture after lentivirus infection
Description: Primary nTreg cells were activated with 500 U/ml of IL-2 and CD3/CD28 T cell dynabeads and cells at 3:1 ratio for 4 h, and, respectively, infected with lentivirus encoding PIM1, PIM2, and PIM3 shRNA overnight. Continued incubation for one week, the mRNA levels of FOXP3 and its target gene CTLA4 were detected by quantitative PCR.
500 U/ml of IL-2 was added to 2×10^5 nTreg cells. Primary nTreg cells were activated at a 3:1 ratio of CD3/CD28 T cell dynabeads and cells for 4 h, followed by infection of lentiviruses encoding PIM1, PIM2, and PIM3 shRNA overnight. Cells were cultured for 1 week without removing dynabeads, and then the mRNAs level of FOXP3 and its target gene CTLA4 were detected (results shown in FIG. 12).
as §1
After annealing, the synthesized shRNA primer sequences were ligated into shRNA lentiviral expression vector pLKO.1 (purchased from Addgene). After mixed at a ratio of pLKO.1:dR8.9:VSVG=5:4:3, they were transfected into HEK 293T cells by calcium phosphate method. Viruses were collected 48 h after transfection. Virus suspensions, after low-speed centrifugation and filtration, were used directly to infect target cells.

[8] = 24 h or 48 h, vs DMSO control group

T1 sequence (P11309 whole entry): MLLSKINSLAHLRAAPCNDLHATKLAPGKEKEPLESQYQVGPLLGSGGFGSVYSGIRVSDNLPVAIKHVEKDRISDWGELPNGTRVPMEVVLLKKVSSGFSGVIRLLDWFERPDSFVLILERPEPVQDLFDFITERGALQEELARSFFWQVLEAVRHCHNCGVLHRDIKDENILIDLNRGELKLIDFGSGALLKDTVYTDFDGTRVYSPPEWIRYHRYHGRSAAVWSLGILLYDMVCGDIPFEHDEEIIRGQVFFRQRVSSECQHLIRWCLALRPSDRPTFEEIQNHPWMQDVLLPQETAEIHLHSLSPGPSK

IL-6: inflammatory cytokine, purchased from Apotech
PIM1 expression [1]: gradually increases as treatment time increases
FOXP3 expression levels [1]: no significant difference
PIM1 protein expression levels [2]: rapidly up-regulate

Nc1nccc(-c2ccc3noc(-c4ccc(Cl)cc4)c3c2)n1 [PIM1 inhibitor, 4-[3-(4-chlorophenyl)-2,1-benzisoxazol-5-yl]-2-pyrimidinamine]
FOXP3+ and CTLA4+ nTreg cell expansion (nTreg cells): promote
FOXP3 expression levels [3]: positively regulate
CD25+ FOXP3+ Treg cell levels [3, 8]: significantly increase
CLTA4+ FOXP3+ Treg cell levels [3, 8]: significantly increase
PBMC proliferation [4]: inhibited more
FOXP3 protein degradation [5]: can inhibit

B1: shPIM1: PIM1 shRNA (SEQ ID NO: 3 and 4) in lentiviral vector pLKO.1 (nucleic acid)
sense: CCGGGATACTCTCTTCTTCTCATAGCTCGAGCTATGAGAAGAAGAGAGTATCTTTTT
antisense: AATTAAAAAGATACTCTCTTCTTCTCATAGCTCGAGCTATGAGAAGAAGAGAGTATC
mRNA expression levels of FOXP3-negatively regulated target gene IL-2 (PIM1 [6]): reduces
mRNA expression levels of FOXP3-positively regulated target gene CTLA4 (PIM1 [6]): enhances
mRNA expression levels of FOXP3-positively regulated target gene GITR (PIM1 [6]): enhances
mRNA expression levels of non-FOXP3 target gene STUB1 (PIM1 [6]): does not affect
mRNA expression levels of PIM1 (PIM1 [6]; DMSO or PMA/inomycin 4 h): significantly reduce
mRNA levels of CTLA4 (PIM1 [7]): increase

B2: IL-4: inflammatory cytokine, purchased from Apotech (protein, UniProt P05112 25-153, looked up)
Interleukin-4: HKCDITLQEIIKTLNSLTEQKTLCTELTVTDIFAASKNTTEKETFCRAATVLRQFYSHHEKDTRCLGATAQQFHRHKQLIRFLKRLDRNLWGLAGLNSCPVKEANQSTLENFLERLKTIMREKYSKCSS
PIM1 expression [1]: gradually increases as treatment time increases
FOXP3 expression levels [1]: no significant difference
PIM1 protein expression levels [2]: rapidly up-regulate
